Structures can show the parent of a compound that is named as a salt.
Experiments:
Format in all cases: cell-based
E. cloacae = assay: Glucuronide screen, agar plates (CPS ID 3 or Columbia agar)
E. faecalis NCTC 775 = assay: as above; conditions: E. faecalis NCTC 775, agar
[1] = system: clinical isolates of E. coli; assay: Glucuronide sensitivity screen, agar plates (CPS ID 3 or Columbia agar)
E. faecium NCTC 7171 = assay: Glucuronide screen, agar plates (CPS ID 3 or Columbia agar); conditions: E. faecium NCTC 7171, agar
[2] = 100 E. coli strains, agar, 18 h incubation

O=C(O)[C@H]1O[C@@H](Oc2c[nH]c3cc(Cl)ccc23)[C@H](O)[C@@H](O)[C@@H]1O [Rose-β-D-glucuronide CHA salt, 6-chloro-3-indolyl β-D-glucuronide]
Colour (E. cloacae; E. cloacae 260329R, agar): −
Colour (E. cloacae; E. cloacae NCTC 11936, agar): −
Colour (E. faecalis NCTC 775): −
% Sensitivity [1]: 81%
Negative strains [1, 2]: 19
Positive strains [1, 2]: 81
Colour ([1]; E. coli 260262P, agar): Red
Colour ([1]; E. coli 260280Z, agar): Red
Colour ([1]; E. coli 260310H, agar): Red
Colour ([1]; E. coli 260313A, agar): −
Colour ([1]; E. coli 260316T, agar): −
Colour ([1]; E. coli 260327V, agar): Red
Colour ([1]; E. coli 260330Y, agar): Red
Colour ([1]; E. coli 260333P, agar): −
Colour ([1]; E. coli 260345F, agar): Red
Colour ([1]; E. coli 260348K, agar): Red
Colour ([1]; E. coli 260354W, agar): Red
Colour ([1]; E. coli 260364H, agar): −
Colour ([1]; E. coli 260370C, agar): Red
Colour ([1]; E. coli 260375E, agar): Red
Colour ([1]; E. coli 260390B, agar): −
Colour ([1]; E. coli 260396Z, agar): Red
Colour ([1]; E. coli 260398Q, agar): Red
Colour ([1]; E. coli 260399E, agar): Red
Colour ([1]; E. coli 260400N, agar): −
Colour ([1]; E. coli 260401Q, agar): Red
Colour ([1]; E. coli 260402H, agar): Red
Colour ([1]; E. coli 260404W, agar): Red
Colour ([1]; E. coli 260405P, agar): Red
Colour ([1]; E. coli 260406A, agar): −
Colour ([1]; E. coli 260406Y, agar): Red
Colour ([1]; E. coli 260407F, agar): Red
Colour ([1]; E. coli 260408C, agar): Red
Colour ([1]; E. coli 260411Z, agar): Red
Colour ([1]; E. coli 260412Q, agar): Red
Colour ([1]; E. coli 260414H, agar): Red
Colour ([1]; E. coli 260415Y, agar): Red
Colour ([1]; E. coli 260416W, agar): −
Colour ([1]; E. coli 260417P, agar): Red
Colour ([1]; E. coli 260422Y, agar): Red
Colour ([1]; E. coli 260424P, agar): Red
Colour ([1]; E. coli 260425A, agar): Red
Colour ([1]; E. coli 260426F, agar): Red
Colour ([1]; E. coli 260428T, agar): Red
Colour ([1]; E. coli 260431N, agar): Red
Colour ([1]; E. coli 260432E, agar): Red
Colour ([1]; E. coli 260433H, agar): Red
Colour ([1]; E. coli 260434Y, agar): Red
Colour ([1]; E. coli 260435W, agar): Red
Colour ([1]; E. coli 260436P, agar): Red
Colour ([1]; E. coli 260437A, agar): Tr. Red
Colour ([1]; E. coli 260438F, agar): Red
Colour ([1]; E. coli 260439C, agar): Red
Colour ([1]; E. coli 260440S, agar): Red
Colour ([1]; E. coli 260441G, agar): Red
Colour ([1]; E. coli 260458Y, agar): Red
Colour ([1]; E. coli 260459W, agar): Red
Colour ([1]; E. coli 260463D, agar): Red
Colour ([1]; E. coli 260464G, agar): Red
Colour ([1]; E. coli 260471B, agar): −
Colour ([1]; E. coli 260478N, agar): −
Colour ([1]; E. coli 260479Q, agar): Red
Colour ([1]; E. coli 260480M, agar): Red
Colour ([1]; E. coli 260481J, agar): Red
Colour ([1]; E. coli 260483R, agar): −
Colour ([1]; E. coli 260485D, agar): Red
Colour ([1]; E. coli 260486L, agar): Red
Colour ([1]; E. coli 260492J, agar): Red
Colour ([1]; E. coli 260494B, agar): Red
Colour ([1]; E. coli 260495R, agar): −
Colour ([1]; E. coli 260497D, agar): Red
Colour ([1]; E. coli 260502G, agar): Red
Colour ([1]; E. coli 260503Z, agar): Red
Colour ([1]; E. coli 260504N, agar): Red
Colour ([1]; E. coli 260505Q, agar): −
Colour ([1]; E. coli 260506E, agar): Red
Colour ([1]; E. coli 260508Y, agar): Red
Colour ([1]; E. coli 260509W, agar): Red
Colour ([1]; E. coli 260510R, agar): Red
Colour ([1]; E. coli 260511X, agar): Red
Colour ([1]; E. coli 260514G, agar): −
Colour ([1]; E. coli 260515Z, agar): Red
Colour ([1]; E. coli 260521S, agar): Red
Colour ([1]; E. coli 260522Z, agar): Red
Colour ([1]; E. coli 260532S, agar): Red
Colour ([1]; E. coli 260533G, agar): Red
Colour ([1]; E. coli 260536Q, agar): Red
Colour ([1]; E. coli 260537E, agar): −
Colour ([1]; E. coli 260538H, agar): −
Colour ([1]; E. coli 260539Y, agar): Red
Colour ([1]; E. coli 260541R, agar): Red
Colour ([1]; E. coli 260545G, agar): Red
Colour ([1]; E. coli 260547N, agar): Red
Colour ([1]; E. coli 260548Q, agar): Red
Colour ([1]; E. coli 260549E, agar): Red
Colour ([1]; E. coli 260553X, agar): −
Colour ([1]; E. coli 260554D, agar): Red
Colour ([1]; E. coli 260555L, agar): Red
Colour ([1]; E. coli 260563B, agar): Red
Colour ([1]; E. coli 260564R, agar): Red
Colour ([1]; E. coli 260578D, agar): −
Colour ([1]; E. coli 2603121P, agar): −
Colour (E. faecium NCTC 7171): −

— patent publication US9938562B2, “Naphthalene derived chromogenic enzyme substrates” (Glycosynth Limited, priority 2013, dated 2018)
